The text below walks through data of article PMC13360702, “An Agonist/Antagonist Photo‐Switchable Vitamin D Mimetic Enables Bidirectional Optical Control of VDR” (Angewandte Chemie (International Ed. in English), 2026).

Where two headings read alike, the source gives them in different places. Some results are limits rather than exact numbers.

In series [1] the target is T1, VDR (Homo sapiens, UniProt P11473).
T1 construct: -CMV-VDR-LBD coding for the hinge region and; expressed in transfected cells; host or cells: HEK293T
T1 sequence (P11473 127-423 limits assumed): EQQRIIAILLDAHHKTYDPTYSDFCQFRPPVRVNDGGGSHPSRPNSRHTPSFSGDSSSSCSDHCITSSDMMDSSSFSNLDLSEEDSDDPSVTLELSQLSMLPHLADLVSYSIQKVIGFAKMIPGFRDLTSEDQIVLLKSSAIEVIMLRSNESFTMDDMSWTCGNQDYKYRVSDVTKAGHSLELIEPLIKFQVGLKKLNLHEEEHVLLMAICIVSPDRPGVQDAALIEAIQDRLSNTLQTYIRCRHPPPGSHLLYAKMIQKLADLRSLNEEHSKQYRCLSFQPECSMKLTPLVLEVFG
Kind of series: Gal4‐VDR hybrid reporter gene assay, antagonist mode (vs. 0.3 µM calcitriol (2)). Format: cell-based. The note with it: dark‐adapted (E)‐state; vs. 0.3 µM 2 (calcitriol); read-out: VDR modulation dark (E): IC50 (antagonist mode). As for the experimental part:
(§1) FIGURE 2 Development and characterization of the light‐activated vitamin D mimetic photo‐vitD (10). (a) Structure activity relationship of photo‐switchable VDR agonists 4–10. Compounds were tested in a cellular Gal4‐VDR hybrid reporter gene assay. Relative activation is normalized to the effect of 2 (1 µM) set as 100% activation. The (Z)‐states of the compounds were maintained with a Cell‐Disco [24] (370 nm). […] Data in agonist (EC50) and antagonist mode (IC50; vs. 0.3 µM 2) are shown for (E)‐ and (Z)‐10. The corresponding dose‐response curves are shown in (d). (b) Predicted binding mode of (E)‐7 (green) in the VDR ligand binding site (pdb ID 4g1d). […] (c) Predicted binding mode of (Z)‐10 (yellow) in the VDR ligand binding site. The altered regiochemistry conveys strong preference for the light‐induced (Z)‐configuration and the extended naphthoic acid motif enables a strong ionic contact to R302. (d) Dose‐response curves of (E)‐ (dark) and (Z)‐10 (370 nm) in the Gal4‐VDR reporter gene assay in agonist (top) and antagonist mode (bottom, with 0.3 µM calcitriol (2)). (Z)‐10 activated VDR; (E)‐10 and (Z)‐10 antagonized VDR activation by 0.3 µM calcitriol (2). (Z)‐10 was maintained with a Cell‐Disco [24] (370 nm). […] Absorbance was measured at 351 nm with a 25 µM solution in DMSO, one cycle is 30 sec. […] (E)/(Z) ratios were measured by NMR. […]
A general note: In a reporter assay the amount or activity of a reporter protein is the signal.

Series [2] relates to nuclear receptors related to VDR. Kind of series: panel of uniform Gal4‐NR hybrid reporter gene assays (selectivity). Format: cell-based, human. The note with it: 1 µM; both (E)‐ and (Z)‐configuration; (Z) maintained with Cell‐Disco (370 nm). Here is the method: as §1
The target of series [3] is T1, VDR. Put plainly: Gal4‐VDR hybrid reporter gene assay, agonist mode. The class given is cell-based. The note with it: HEK293T cells, mean±S.E.M., n≥3. Here is the method:
FIGURE 2 Development and characterization of the light‐activated vitamin D mimetic photo‐vitD (10). (a) Structure activity relationship of photo‐switchable VDR agonists 4–10. Compounds were tested in a cellular Gal4‐VDR hybrid reporter gene assay. Relative activation is normalized to the effect of 2 (1 µM) set as 100% activation. The (Z)‐states of the compounds were maintained with a Cell‐Disco [24] (370 nm). […] Data in agonist (EC50) and antagonist mode (IC50; vs. 0.3 µM 2) are shown for (E)‐ and (Z)‐10. The corresponding dose‐response curves are shown in (d). (b) Predicted binding mode of (E)‐7 (green) in the VDR ligand binding site (pdb ID 4g1d). […] (c) Predicted binding mode of (Z)‐10 (yellow) in the VDR ligand binding site. The altered regiochemistry conveys strong preference for the light‐induced (Z)‐configuration and the extended naphthoic acid motif enables a strong ionic contact to R302. (d) Dose‐response curves of (E)‐ (dark) and (Z)‐10 (370 nm) in the Gal4‐VDR reporter gene assay in agonist (top) and antagonist mode (bottom, with 0.3 µM calcitriol (2)). (Z)‐10 activated VDR; (E)‐10 and (Z)‐10 antagonized VDR activation by 0.3 µM calcitriol (2). (Z)‐10 was maintained with a Cell‐Disco [24] (370 nm). Data are the mean±S.E.M. relative VDR act. vs. 0.3 µM calcitriol (2), n≥3. (e) Activity profile of 10 (1 µM) on nuclear receptors showing exclusive VDR activation by the light‐activated state. 10 was tested in a panel of uniform Gal4‐NR hybrid reporter gene assays. (Z)‐10 was maintained with a Cell‐Disco [24] (370 nm). Data are the mean±SD, n = 3. (f) Representative UV/Vis spectra of 10 as (E)‐ (dark) and (Z)‐states (PSS 365 nm), and after switching back to (E) with 465 nm. (g) (E)/(Z)‐ratios of 10 in the dark‐adapted state, after illumination at 365 nm for 5 min and after switching back from mostly‐(Z) with 465 nm for 5 min. (h) 10 could be rapidly and reversibly switched between the (E)‐ and (Z)‐states over multiple cycles by alternating irradiation at 365 and 465 nm. Absorbance was measured at 351 nm with a 25 µM solution in DMSO, one cycle is 30 sec. […] 10 was pre‐illuminated at 365 nm for 30 min and then kept in the dark. (E)/(Z) ratios were measured by NMR. (j) Binding mode prediction of (E)‐ and (Z)‐10 to the VDR‐antagonist complex 2zxm (residues numbered according to [21]). (Z)‐10 (yellow) forms an agonist‐like binding mode with several polar interactions at both ends of the pocket. (E)‐10 (cyan) is also anchored at the distal end of the pocket by an H‐bond network with R302 and the D176 backbone but due to the (E)‐configuration, the β‐naphthoic acid residue protrudes deeper and the pentan‐3‐ol motif rotates away from H333/H423. Therefore, (E)‐10 lacks stabilizing/activating contacts with the H333/H423 region rationalizing its antagonist properties.
Gal4-hybrid reporter gene assays. Reporter gene assays were performed in HEK293T cells (German Collection of Microorganisms and Cell Culture GmbH, DSMZ) as reported previously using Gal4 -NR LBD fusion receptor plasmids each coding for the hinge region and LBD of the canonical isoform of the respective human nuclear receptor.[7,8] pFR-Luc (Stratagene, La Jolla, CA, USA) served as a reporter plasmid and pRL-SV40 (Promega, Madison, WI, USA) was used for normalization of transfection efficiency and test compound toxicity. Cells were cultured in Dulbecco’s modified Eagle’s medium (DMEM), high glucose supplemented with 10% fetal calf serum (FCS), sodium pyruvate (1 mM), penicillin (100 U/mL), and streptomycin (100 μg/mL) at 37 °C and 5% CO2, and seeded in 96-well plates (3 × 10^4 cells/well). After 24 h, the medium was changed to Opti -MEM without supplements, and cells were transiently transfected using Lipofectamine LTX reagent (Invitrogen, Carlsbad, CA, USA) according to the manufacturer’s protocol. Five hours after transfection, cells were incubated with the test compounds […]

Series [4] can be described thus: photophysical characterization (photo‐switching, thermal relaxation). The class given is physicochemical. The note with it: alternating irradiation at 365 and 465 nm; 25 µM solution in DMSO. Here is the method:
as §1

By IC50 is commonly meant the concentration at which inhibition is half-maximal. One may read the EC50 as the concentration at which the effect is half-maximal. Regarding `CCCc1cc(C(O)(CC)CC)ccc1-c1ccc(/N=N/c2ccc3cc(C(=O)O)ccc3c2)cc1C` [compound 10], the half-maximal inhibitory concentration (IC50) in series [1] is 600 ± 100 nM. In series [2], the “activity on nuclear receptors related to VDR” value is recorded as “no activity”. In addition, the EC50 was 170 nM in series [3] ((Z)‐state maintained with Cell‐Disco (370 nm), read-out: VDR modulation light-activated (Z): EC50) and greater than 10000 nM in series [3] (dark‐adapted (E)‐state, read-out: VDR modulation dark (E): EC50). Also, the “reversible switching between (E)‐ and (Z)‐states over multiple cycles” value in series [4] is given as “no fatigue”.
